Legend:
Test in all cases: MIC with cefepime, agar microdilution, CLSI
Format in all cases: cell-based
[1] = system: E. coli DH10B pBC-SK SHV-2; details: compound fixed at 4 ug/ml
Procedure, shortened: (§1)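 MIC values come from agar microdilution run to CLSI guidelines. The compound was present at a constant 4 ug/ml while cefepime was varied.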

E. coli DH10B pBC-SK P99 = details: compound fixed at 4 ug/ml
Procedure, shortened: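 Fixed 4 ug/ml compound + cefepime; agar microdilution, CLSI.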

[2] = system: E. coli DH10B pBC-SK PDC-3; details: compound fixed at 4 ug/ml
Procedure, shortened: as §1

K. pneumoniae ST258 B5 = details: compound fixed at 4 ug/ml; KPC-2
Procedure, shortened: as §1

[3] = system: E. coli DH10B pBC-SK KPC-2; details: compound fixed at 4 ug/ml
Procedure, shortened: as §1

[4] = system: E. coli DH10B pBC-SK control; details: compound fixed at 4 ug/ml; B-lactamases none
Procedure, shortened: as §1

K. pneumoniae 255 = details: compound fixed at 4 ug/ml; TEM-1, SHV-2
Procedure, shortened: as §1

K. pneumoniae 266 = details: compound fixed at 4 ug/ml; SHV-5
Procedure, shortened: as §1

K. pneumoniae 427 = details: compound fixed at 4 ug/ml; TEM-1, SHV-1, CTX-M-3
Procedure, shortened: as §1

E. coli ATCC BAA202 = details: compound fixed at 4 ug/ml; SHV-1
Procedure, shortened: as §1

[5] = system: K. pneumoniae original KPC-2; details: compound fixed at 4 ug/ml
Procedure, shortened: as §1

K. pneumoniae ST17 = details: compound fixed at 4 ug/ml; KPC-2, TEM, SHV, CTX-M-Group 1
Procedure, shortened: as §1

K. pneumoniae 34700 = details: compound fixed at 4 ug/ml; CTX-M-15, SHV, TEM
Procedure, shortened: as §1

E. coli pLTCF2 = details: compound fixed at 4 ug/ml
Procedure, shortened: as §1

A. baumannii 0057 = details: compound fixed at 4 ug/ml; ADC-7
Procedure, shortened: as §1

For `Nc1nnc(SCC(=O)NC(Cn2cc(C(=O)O)nn2)B(O)O)s1` (stereo not drawn) [MB076], the MIC of cefepime in combination with compound [1] was under 0.25 µg/mL, the MIC of cefepime in combination with compound (E. coli DH10B pBC-SK P99) was under 0.25 µg/mL and the MIC of cefepime in combination with compound [2] was under 0.25 µg/mL. The MIC of cefepime in combination with compound (K. pneumoniae ST258 B5) was 8 µg/mL, the MIC of cefepime in combination with compound [3] was under 0.25 µg/mL and the MIC of cefepime in combination with compound [4] was under 0.25 µg/mL. It also gave an MIC of cefepime in combination with compound (K. pneumoniae 255) of 2 µg/mL, an MIC of cefepime in combination with compound (K. pneumoniae 266) of under 0.25 µg/mL and an MIC of cefepime in combination with compound (K. pneumoniae 427) of under 0.25 µg/mL. The MIC of cefepime in combination with compound (E. coli ATCC BAA202) was under 0.25 µg/mL, the MIC of cefepime in combination with compound [5] was under 0.25 µg/mL and the MIC of cefepime in combination with compound (K. pneumoniae ST17) was 16 µg/mL. The MIC of cefepime in combination with compound (K. pneumoniae 34700) was 1 µg/mL, the MIC of cefepime in combination with compound (E. coli pLTCF2) was under 0.25 µg/mL and the MIC of cefepime in combination with compound (A. baumannii 0057) was 64 µg/mL.

From US20250340577A1, “BETA-LACTOMASE INHIBITORS AND USES THEREOF” (Case Western Reserve University, priority 2021, published 2025)
